According to patent US8791267B2, “Biaryl PDE4 inhibitors for treating inflammatory, cardiovascular and CNS disorders” (Decode Genetics EHF, priority 2007, dated 2014):
Structures can show the parent of a compound that is named as a salt. Where two headings read alike, the source gives them in different places.

Tests used:
PDE4B = PDE4B (Homo sapiens, UniProt Q07343); experiment: In-vitro assay for PDE4 enzymes, real-time enzyme-coupled spectrophotometric assay, PDE4B Activity (Table 10); assay type: biochemical
PDE4 = PDE4 (Homo sapiens, UniProt Q08499); experiment: In-vitro assay for PDE4 enzymes, real-time enzyme-coupled spectrophotometric assay (Table 9); assay type: biochemical
[1] = human PDE4B (hPDE4B), enzyme-coupled spectrophotometric assay, read-out: PDE4B Activity, hPDE4B
[2] = human PDE4D, activity class, Table 9, read-out: hPDE4D

Sequence of PDE4B (Q07343 whole entry): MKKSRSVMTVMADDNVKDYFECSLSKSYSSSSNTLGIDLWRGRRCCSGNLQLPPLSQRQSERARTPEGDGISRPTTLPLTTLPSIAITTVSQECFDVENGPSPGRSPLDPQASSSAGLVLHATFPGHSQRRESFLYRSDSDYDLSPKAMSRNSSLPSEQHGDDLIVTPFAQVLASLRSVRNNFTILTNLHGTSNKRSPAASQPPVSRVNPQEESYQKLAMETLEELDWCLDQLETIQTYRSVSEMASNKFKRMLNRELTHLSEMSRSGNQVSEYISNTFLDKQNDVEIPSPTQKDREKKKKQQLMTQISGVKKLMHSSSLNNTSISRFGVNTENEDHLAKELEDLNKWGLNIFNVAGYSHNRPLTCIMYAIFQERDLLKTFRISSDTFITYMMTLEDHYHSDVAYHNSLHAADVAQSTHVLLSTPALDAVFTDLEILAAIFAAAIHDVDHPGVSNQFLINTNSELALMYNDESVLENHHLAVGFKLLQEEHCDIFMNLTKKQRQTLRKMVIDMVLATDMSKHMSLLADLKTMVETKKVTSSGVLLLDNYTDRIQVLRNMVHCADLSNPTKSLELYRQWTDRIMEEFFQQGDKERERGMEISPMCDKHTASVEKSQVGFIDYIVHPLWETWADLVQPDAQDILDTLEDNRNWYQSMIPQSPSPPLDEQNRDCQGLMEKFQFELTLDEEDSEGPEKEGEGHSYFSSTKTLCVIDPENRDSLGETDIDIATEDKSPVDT
Sequence of PDE4 (Q08499 whole entry): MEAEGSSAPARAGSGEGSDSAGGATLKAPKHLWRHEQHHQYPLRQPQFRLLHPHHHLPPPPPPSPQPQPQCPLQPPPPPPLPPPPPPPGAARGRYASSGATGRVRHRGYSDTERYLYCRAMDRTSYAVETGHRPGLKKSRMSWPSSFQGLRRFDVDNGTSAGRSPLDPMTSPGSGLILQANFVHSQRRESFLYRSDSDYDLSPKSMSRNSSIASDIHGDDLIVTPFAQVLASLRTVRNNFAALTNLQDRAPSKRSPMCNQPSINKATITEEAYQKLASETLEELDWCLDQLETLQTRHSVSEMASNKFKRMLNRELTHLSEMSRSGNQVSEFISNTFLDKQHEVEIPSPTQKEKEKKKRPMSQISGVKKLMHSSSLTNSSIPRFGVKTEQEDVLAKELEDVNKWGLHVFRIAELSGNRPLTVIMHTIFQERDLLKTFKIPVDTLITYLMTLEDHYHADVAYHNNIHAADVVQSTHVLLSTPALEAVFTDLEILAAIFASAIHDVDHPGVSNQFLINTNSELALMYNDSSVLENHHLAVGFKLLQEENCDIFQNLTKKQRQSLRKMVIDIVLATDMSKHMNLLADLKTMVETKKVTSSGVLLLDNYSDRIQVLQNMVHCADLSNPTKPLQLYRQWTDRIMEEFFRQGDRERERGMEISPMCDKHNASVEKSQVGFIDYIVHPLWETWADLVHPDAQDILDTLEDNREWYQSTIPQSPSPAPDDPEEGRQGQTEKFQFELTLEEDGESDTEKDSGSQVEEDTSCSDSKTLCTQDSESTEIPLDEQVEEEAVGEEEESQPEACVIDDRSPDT

| SMILES | IC50 (PDE4B; [1]) | IC50 (PDE4; [2]) | IC50 (PDE4B) | IC50 (PDE4) |
| --- | --- | --- | --- | --- |
| COc1ccc(Cc2ccnc(N3CCN(C(N)=O)CC3)c2)c(F)c1-c1cccc(Cl)c1 [P-518, 4-[4-(3′-Chloro-2-fluoro-6-methoxy-biphenyl-3-ylmethyl)-pyridin-2-yl]-piperazine-1-carboxylic acid amide] | < 5 µM | < 5 µM | – | – |
| COc1ccc(Cc2ccc(CO)cc2)c(O)c1-c1cccc([N+](=O)[O-])c1 [P-183, 3-(4-Hydroxymethyl-benzyl)-6-methoxy-3′-nitro-biphenyl-2-ol] | < 5 µM | < 5 µM | – | – |
| NCc1ccc(Cc2ccc(OC(F)F)c(-c3cccc(Cl)c3)c2)cn1 [P-596, C-[5-(3′-Chloro-6-difluoromethoxy-biphenyl-3-ylmethyl)-pyridin-2-yl]-methylamine] | < 5 µM | < 5 µM | – | – |
| COc1ccc(CN2CCNC2=O)cc1-c1cccc([N+](=O)[O-])c1 [P-034, 1-(6-Methoxy-3′-nitro-biphenyl-3-ylmethyl)-imidazolidin-2-one] | < 5 µM | < 5 µM | – | – |
| NC(=O)Nc1ccc(Cc2ccc(OC3CSC3)c(-c3cccc(Cl)c3)c2)cc1 [P-553, {4-[3′-Chloro-6-(thietan-3-yloxy)-biphenyl-3-ylmethyl]-phenyl}-urea] | < 5 µM | < 5 µM | – | – |
| COc1ccc(Cc2ccc(C#N)c(O)c2)c(F)c1-c1cccc(Cl)c1 [P-295] | 21 to 40 µM | < 5 µM | – | – |
| COc1ccc(Cc2ccc(N3CCC3)nc2)c(F)c1-c1cccc(Cl)c1 [P-569, 2-Azetidin-1-yl-5-(3′-chloro-2-fluoro-6-methoxy-biphenyl-3-ylmethyl)-pyridine] | < 5 µM | < 5 µM | – | – |
| COc1ccc(Cc2cccnc2Cl)c(O)c1-c1cccc([N+](=O)[O-])c1 [P-109] | < 5 µM | < 5 µM | – | – |
| COc1ccc(Cc2ccc(N)c(O)c2)c(F)c1-c1cccc(Cl)c1 [P-256] | 5 to 20 µM | < 5 µM | – | – |
| COc1ccc(Cc2ccc(OCCN(C)C)nc2)c(O)c1-c1cccc([N+](=O)[O-])c1 [P-150] | 5 to 20 µM | 5 to 20 µM | – | – |
| O=[N+]([O-])c1cccc(-c2nc(Cc3ccc(F)cc3)ccc2OC(F)F)c1 [P-057] | < 5 µM | < 5 µM | – | – |
| COc1ccc(Nc2ccc(NC(N)=O)cc2)cc1-c1cccc(C(C)=O)c1 [P-268, [4-(3′-acetyl-6-methoxy-biphenyl-3-ylamino)-phenyl]-urea] | 5 to 20 µM | < 5 µM | – | – |
| COc1ccc(Cn2cnc([N+](=O)[O-])c2)c(F)c1-c1cccc(Cl)c1 [P-536, 1-(3′-Chloro-2-fluoro-6-methoxy-biphenyl-3-ylmethyl)-4-nitro-1H-imidazole] | < 5 µM | < 5 µM | – | – |
| COc1ccc(Cc2ccc(CO)nc2)c(F)c1-c1cccc(Cl)c1 [P-599, [5-(3′-Chloro-2-fluoro-6-methoxy-biphenyl-3-ylmethyl)-pyridin-2-yl]-methanol] | < 5 µM | < 5 µM | – | – |
| COCc1ccc(OC)c(-c2cccc([N+](=O)[O-])c2)n1 [P-025, 3-methoxy-6-methoxymethyl-2-(3-nitro-phenyl)-pyridine] | 21 to 40 µM | 5 to 20 µM | – | – |
| CCNC(=O)Nc1nnc(Cc2ccc(OC)c(-c3cccc(Cl)c3)c2F)s1 [P-343, 1-[5-(3′-Chloro-2-fluoro-6-methoxy-biphenyl-3-ylmethyl)-[1,3,4]thiadiazol-2-yl]-3-ethyl-urea] | < 5 µM | < 5 µM | – | – |
| COc1ccc(Cn2ccc(N)cc2=O)cc1-c1cccc([N+](=O)[O-])c1 [P-215, 4-Amino-1-(6-methoxy-3′-nitro-biphenyl-3-ylmethyl)-1H-pyridin-2-one] | 5 to 20 µM | 5 to 20 µM | – | – |
| COc1ccc(Oc2ccc(NS(C)(=O)=O)cc2)c(F)c1-c1cccc(Cl)c1 [P-254, N-[4-(3′-Chloro-2-fluoro-6-methoxy-biphenyl-3-yloxy)-phenyl]-methanesulfonamide] | < 5 µM | 5 to 20 µM | – | – |
| COc1ccc(Cc2cnc(N)nc2)c(F)c1-c1cccc(C(C)=O)c1 [P-281, 1-[3′-(2-Amino-pyrimidin-5-ylmethyl)-2′-fluoro-6′-methoxy-biphenyl-3-yl]-ethanone hydrochloride] | < 5 µM | < 5 µM | – | – |
| COc1ccc(Cc2ccc(OCCN3CCCC3)cc2)cc1-c1cccc([N+](=O)[O-])c1 [P-165] | 5 to 20 µM | < 5 µM | – | – |
| COc1ccc(Cc2ccc(N)nc2)c(F)c1-c1cccc(C(C)=O)c1 [P-277, 1-[3′-(6-Amino-pyridin-3-ylmethyl)-2′-fluoro-6′-methoxy-biphenyl-3-yl]-ethanone] | < 5 µM | < 5 µM | – | – |
| COc1ccc(Cc2ccc(CNC(N)=O)cc2)c(F)c1-c1cccc([N+](=O)[O-])c1 [P-237] | < 5 µM | < 5 µM | – | – |
| COc1ccc(Cc2ccc(N3CCOC3=O)nc2)c(F)c1-c1cccc(Cl)c1 [P-469, 3-[5-(3′-Chloro-2-fluoro-6-methoxy-biphenyl-3-ylmethyl)-pyridin-2-yl]-oxazolidin-2-one] | < 5 µM | < 5 µM | – | – |
| COc1ccc(Cc2ccc(CNC(=O)Oc3ccccc3)nc2)cc1-c1cccc(Cl)c1 [P-592, [5-(3′-Chloro-6-methoxy-biphenyl-3-ylmethyl)-pyridin-2-ylmethyl]-carbamic acid phenyl ester] | – | – | < 5 µM | < 5 µM |

| SMILES | IC50 (PDE4B; [1]) | IC50 (PDE4; [2]) | IC50 (PDE4B) | IC50 (PDE4) |
| --- | --- | --- | --- | --- |
| COc1ccc(Cc2ccc(CNC(N)=O)nc2)c(F)c1-c1cccc(Cl)c1 [P-368, [5-(3′-Chloro-2-fluoro-6-methoxy-biphenyl-3-ylmethyl)-pyridin-2-ylmethyl]-urea] | < 5 µM | < 5 µM | – | – |
| COc1ccc(Cc2ccncc2)cc1-c1cccc([N+](=O)[O-])c1 [P-008] | < 5 µM | < 5 µM | – | – |
| COc1ccc(Nc2ccc(N)cc2)cc1-c1cccc(Cl)c1 [P-280, N-(3′-Chloro-6-methoxy-biphenyl-3-yl)-benzene-1,4-diamine; hydrochloride] | < 5 µM | < 5 µM | – | – |
| COc1ccc(CN2CCCC2=O)cc1-c1cccc(C(C)=O)c1 [P-172, 1-(3′-Acetyl-6-methoxy-biphenyl-3-ylmethyl)-pyrrolidin-2-one] | < 5 µM | < 5 µM | – | – |
| CCOc1ccc(Cc2ccc(NC(N)=O)cc2)c(F)c1-c1cccc(C(C)=O)c1 [P-335, [4-(3′-Acetyl-6-ethoxy-2-fluoro-biphenyl-3-ylmethyl)-phenyl]-urea] | < 5 µM | < 5 µM | – | – |
| COc1ccc(Cc2ccc(CN)c(F)c2)c(F)c1-c1cccc(Cl)c1 [P-275] | 5 to 20 µM | < 5 µM | – | – |
| COc1ccc(Cn2cncn2)cc1-c1ccc2nonc2c1 [P-481, 5-(2-Methoxy-5-[1,2,4]triazol-1-ylmethyl-phenyl)-benzo[1,2,5]oxadiazole] | 5 to 20 µM | < 5 µM | – | – |
| CCNC(=O)Nc1ncc(Cc2ccc(OC)c(-c3cccc(C#N)c3)c2F)cn1 [P-399, 1-[5-(3′-Cyano-2-fluoro-6-methoxy-biphenyl-3-ylmethyl)-pyrimidin-2-yl]-3-ethyl-urea] | < 5 µM | < 5 µM | – | – |
| COc1ccc(Cc2ccc(NC(=O)CNC(=O)OC(C)(C)C)cc2)cc1-c1cccc([N+](=O)[O-])c1 [P-143] | < 5 µM | < 5 µM | – | – |
| COc1cc(F)c(Cc2ccc(F)cc2)cc1-c1cccc([N+](=O)[O-])c1 [P-094, 4-Fluoro-5-(4-fluoro-benzyl)-2-methoxy-3′-nitro-biphenyl] | < 5 µM | < 5 µM | – | – |
| COc1ccc(Cc2ccc(C(C)N)nc2)c(F)c1-c1cccc(Cl)c1 (stereo not shown) [P-606, 1-[5-(3′-Chloro-2-fluoro-6-methoxy-biphenyl-3-ylmethyl)-pyridin-2-yl]-ethylamine] | < 5 µM | < 5 µM | – | – |
| COc1ccc(Cc2ccc(=O)[nH]n2)cc1-c1cccc([N+](=O)[O-])c1 [P-009, 6-(6-Methoxy-3′-nitro-biphenyl-3-ylmethyl)-2H-pyridazin-3-one] | < 5 µM | < 5 µM | – | – |
| CCNC(=O)Nc1ccc(Cc2ccc(OC)c(-c3cccc(C#N)c3)c2F)cn1 [P-405, 1-[5-(3′-Cyano-2-fluoro-6-methoxy-biphenyl-3-ylmethyl)-pyridin-2-yl]-3-ethyl-urea hydrochloride salt] | < 5 µM | < 5 µM | – | – |
| COc1ccc(Cc2ccc(NC(C)=O)cc2)cc1-c1cccc([N+](=O)[O-])c1 [P-114] | < 5 µM | < 5 µM | – | – |
| COc1ccc(Cc2ccc(CN3CCNC3=O)nc2)c(F)c1-c1cccc(Cl)c1 [P-374, 1-[5-(3′-Chloro-2-fluoro-6-methoxy-biphenyl-3-ylmethyl)-pyridin-2-ylmethyl]-imidazolidin-2-one] | < 5 µM | < 5 µM | – | – |
| COc1ccc(CNS(=O)(=O)c2ccc(NC(C)=O)cc2)c(F)c1-c1cccc(Cl)c1 [P-251, N-{4-[(3′-Chloro-2-fluoro-6-methoxy-biphenyl-3-ylmethyl)-sulfamoyl]-phenyl}-acetamide] | < 5 µM | < 5 µM | – | – |
| CNC(=O)NCc1ccc(Cc2ccc(OC(F)F)c(-c3cccc(Cl)c3)c2)cn1 [P-598, 1-[5-(3′-Chloro-6-difluoromethoxy-biphenyl-3-ylmethyl)-pyridin-2-ylmethyl]-3-methyl-urea hydrochloride] | < 5 µM | < 5 µM | – | – |
| COc1ccc(Cc2ccc(NC(N)=O)cc2)c(F)c1-c1cccc([N+](=O)[O-])c1 [P-181] | < 5 µM | < 5 µM | – | – |
| COc1ccc(COc2ccccn2)cc1-c1cccc([N+](=O)[O-])c1 [P-224, 2-(6-Methoxy-3′-nitro-biphenyl-3-ylmethoxy)-pyridine] | 5 to 20 µM | 5 to 20 µM | – | – |
| COc1ccc(Cc2ccnn2C)cc1-c1ccc2c(c1)OCO2 [P-075, 5-(3-Benzo[1,3]dioxol-5-yl-4-methoxy-benzyl)-1-methyl-1H-pyrazole] | < 5 µM | < 5 µM | – | – |
| COc1ccc(Cc2ccc(OCCN3CCOCC3)cc2)cc1-c1cccc([N+](=O)[O-])c1 [P-171] | < 5 µM | < 5 µM | – | – |
| COc1ccc(Cc2ccc(OC)c(-c3cccc(Cl)c3)c2F)cn1 [P-225] | < 5 µM | < 5 µM | – | – |
| COc1ccc(Cn2ccccc2=O)cc1-c1cccc(Cl)c1 [P-209, 1-(3′-Chloro-6-methoxy-biphenyl-3-ylmethyl)-1H-pyridin-2-one] | < 5 µM | 5 to 20 µM | – | – |
